The nature of assay [1]: Displacement of [3H]di-O-tolylguanidine from rat brain membrane sigma 2 receptor after 120 mins in the presence of (+)-pentazocin.
Assay [2] addresses Sigma non-opioid intracellular receptor 1 (Rattus norvegicus, UniProt Q9R0C9). The assay can be described thus: Displacement of [3H](+)-pentazocine from rat brain membrane sigma 1receptor after 120 mins. On the technique in general: In a radioligand displacement assay an active substance lowers the binding of a labelled ligand.
For assay [3], the species on record is Rattus norvegicus. The assay can be described thus: Selectivity ratio of Ki for rat brain membrane sigma 1receptor to Ki for rat brain membrane sigma 2 receptor.

Sequence of Sigma non-opioid intracellular receptor 1 (Q9R0C9 whole entry): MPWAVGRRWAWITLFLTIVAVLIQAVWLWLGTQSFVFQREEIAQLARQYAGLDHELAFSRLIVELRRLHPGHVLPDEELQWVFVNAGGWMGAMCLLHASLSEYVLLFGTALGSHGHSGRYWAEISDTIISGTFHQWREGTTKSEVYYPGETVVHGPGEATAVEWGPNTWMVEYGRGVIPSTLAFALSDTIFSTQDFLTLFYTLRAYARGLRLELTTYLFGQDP

Consider `c1ccc(CCN2CCN(c3cccnc3)CC2)cc1`, for which the Ki – broadly, a dissociation constant, usually derived from enzyme kinetics or from competition with a known ligand – stood at 440 nM in assay [1] and 97.2 nM in assay [2]. The Ratio Ki in assay [3] was determined as 0.22.
Take `c1ccc(CCCN2CCN(c3cccnc3)CC2)cc1`: the figures for the Ki in assay [1] and in assay [2] were 110 nM and 21.2 nM, respectively. In addition, the Ratio Ki in assay [3] stood at 0.19.
The like results for `c1ccc(CCCN2CCN(c3ccncc3)CC2)cc1` were, in that order, 84 nM, 34.2 nM and 0.41.
For `c1ccc(CCN2CCN(c3ccncc3)CC2)cc1` the same measures were 69.7 nM, 41.8 nM and 0.6.
On to `c1ccc(CCCN2CCN(c3ccccn3)CC2)cc1`, for which the inhibition constant (Ki) in assay [1] turned out to be 4.91 nM. The Ratio Ki in assay [3] was 16.9.
For `c1ccc(CCN2CCN(c3ccccn3)CC2)cc1`, the Ki in assay [1] came to 119 nM. In addition, the Ratio Ki in assay [3] stood at 2.7.

Source of the values: ChEMBL document CHEMBL1156202, “The effect of the pyridyl nitrogen position in pyridylpiperazine sigma ligands” (Bioorg Med Chem Lett, 2010).
